USRE48253E1, “Methotrexate adjuvants to reduce toxicity and methods for using the same” (Tosk, Inc., priority 2008, dated 2020)

Test: Mouse Study VI: plasma uridine and TK-112690 after TK-112690 treatment
Format: in vivo, CD-1 mouse
Conditions: 0, 15, 30, 60 and 120 mg/kg ip
Procedure: In this study, CD-1 female mice were injected ip with 120 mg/kg TK-112690 and plasma from the animals analyzed by HPLC using UV detection for TK-112690 and uridine. Concentrations of uridine and TK-112690 in plasma samples collected 0.08, 0.50, 1, 2, 4 or 12 hours post TK-112690 injection were determined by HPLC using UV detection. […] An increase in plasma uridine was noted almost immediately following administration of TK-112690. At 0.5 hour post TK-112690 dose, a 100 μg/mL plasma concentration TK-112690 is associated with a plasma uridine concentration of approximately 2 μg/mL of uridine (baseline uridine concentration approximately 0.5 μg/mL). […]
Plasma uridine concentration was determined by HPLC using UV detectionafter animals were treated with TK-112690 as follows. […] CD-1 female mice were injected ip with a range of TK-112690 doses (0, 15, 30, 60 and 120 mg/kg) and plasma from the animals analyzed for TK-112690 uridine concentrations expected to be elevated through UPase inhibition by TK-112690. Plasma uridine concentrations were determined from plasma samples collected 0.08, 0.50, 1, 2, 4 or 12 hours post TK-112690 injection. […]
The micromolar concentration of plasma uridine was determined by linear equation (y=mx+b) generated from uridine and 5-FU calibration curve. The y value is calculated by taking ratio of peak heights (mm) of uridine and 5-FU. […]

In the case of Cc1cn2c(nc1=O)O[C@H]1[C@H](O)[C@@H](CO)O[C@H]12 [TK-112690, 2,2′-anhydro-5-methyluridine], the “plasma concentrations of TK-112690 vs dose” value is reported as “increased with increasing doses”.
